The record followed here is ChEMBL document CHEMBL1201862, “PubChem BioAssay data set” (2004).

Holding throughout (assay): growth of human tumour cells (NCI), 48 h
Experiment [1] deals with CAKI-1.
For experiment [2], the system named is COLO 205.
Experiment [3] concerns HOP-62.
Experiment [4] deals with HT-29.
The test system of experiment [5] is IGROV-1.
For experiment [6], the system named is KM12.
Experiment [7] has as its system LOX IMVI.
In experiment [8] the test system is MDA-MB-435.
Experiment [9] has as its system MOLT-4.
For experiment [10], the system named is NCI-H522.
Experiment [11] relates to OVCAR-3.
For experiment [12], the system named is OVCAR-8.
Experiment [13] relates to PC-3.
For experiment [14], the system named is SF-268.
Experiment [15] concerns SK-MEL-28.
The test system of experiment [16] is SK-MEL-2.
Experiment [17] has as its system SK-MEL-5.
Experiment [18] relates to SK-OV-3.
Experiment [19] has as its system T47D.
The test system of experiment [20] is UO-31.

Molecules are shown by their SMILES.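 In this assay, cells in 96-well plates receive the compound at five concentrations for 48 hours. Endpoints are linearly interpolated between the surrounding concentrations. At the GI50, growth is halved.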 Active and inactive are the calls of the source. Rule as the data show it: active = GI50 up to about 1.1 µM and inactive = higher.

Take `O=c1c2ccccc2sc2c(CO)ccc(NCCN3CCCCC3)c12`: the GI50 in [1] is 3.45 µM (inactive); in experiment [2] it was 1.92 µM (inactive); in [3], 3.24 µM (inactive); in experiment [4], 2.94 µM (inactive); in experiment [5] it was 3.93 µM (inactive); in experiment [6] it was 3.55 µM (inactive). Further, the GI50 is 2.86 µM (inactive) in [7]; 2.64 µM (inactive) in [8]; 1.04 µM (active) in [9]; 1.58 µM (inactive) in experiment [10]; 2.22 µM (inactive) in experiment [11]; 3.56 µM (inactive) in experiment [12]. The GI50 was 4.31 µM (inactive) in experiment [13]; 3.32 µM (inactive) in experiment [14]; 2.9 µM (inactive) in experiment [15]; 4.47 µM (inactive) in experiment [16]; 1.69 µM (inactive) in experiment [17]; 3.91 µM (inactive) in experiment [18]. Moreover, the GI50 in experiment [19] was 5.25 µM (inactive); in [20] it was 1.88 µM (inactive).
Regarding `CCOP(=O)(OCC)C(Nc1ccc(F)cc1)c1ccccc1` (configuration not stated), the GI50 in experiment [1], in experiment [2], in experiment [3], in experiment [4], in [5] and in experiment [6] was > 100 µM (inactive) in each case. In addition, the GI50 in experiment [7] is > 100 µM (inactive); in [8], > 100 µM (inactive); in [9], 92.9 µM (inactive); in experiment [10], 56.5 µM (inactive); in [11], > 100 µM (inactive); in [12], > 100 µM (inactive). Moreover, the GI50 is 32 µM (inactive) in [13]; > 100 µM (inactive) in experiment [14]; > 100 µM (inactive) in [15]; > 100 µM (inactive) in experiment [16]; > 100 µM (inactive) in experiment [17]; > 100 µM (inactive) in experiment [18]. Moreover, the GI50 in [19] was 35.1 µM (inactive); in [20] it was 82.2 µM (inactive).
Regarding `Nc1nc(SCC(=O)c2ccc(Br)cc2)c2nc[nH]c2n1`, the GI50 in experiment [1] is 26.2 µM (inactive); in [2] it was 17 µM (inactive); in [3] it was 44.9 µM (inactive); in experiment [4], 44.6 µM (inactive); in [5], 13.6 µM (inactive); in experiment [6], 44.8 µM (inactive). Moreover, the GI50 is 31.4 µM (inactive) in [7]; 35.2 µM (inactive) in experiment [8]; 17.8 µM (inactive) in experiment [10]; 32.3 µM (inactive) in [11]; 28.8 µM (inactive) in [12]; 34.2 µM (inactive) in experiment [13]. For the same compound, the GI50 in experiment [14] was 23 µM (inactive); in experiment [15] it was 65.2 µM (inactive); in experiment [16], 32.1 µM (inactive); in [17], 20 µM (inactive); in experiment [18], 34.5 µM (inactive); in experiment [19], 25.8 µM (inactive). For the same compound, the GI50 in experiment [20] is 27.4 µM (inactive).
Turning to `O=S(=O)(O)C(c1ccccc1)C(O)c1ccccc1` (configuration not stated), the GI50 in [1], in [2], in [3], in experiment [4], in [5] and in experiment [6] was > 100 µM (inactive) each time. The GI50 in experiment [7], in experiment [8], in experiment [10], in experiment [11], in experiment [12] and in experiment [13] was > 100 µM (inactive) throughout. Also, the GI50 in experiment [14], in [15], in experiment [16], in [17], in experiment [18] and in experiment [19] was > 100 µM (inactive) in each case. Also, the GI50 in experiment [20] is > 100 µM (inactive).
Take `O=c1[nH]c2nc3ccccc3c(=O)n2/c1=C/c1ccco1`: the GI50 in experiment [1], in experiment [2], in experiment [3], in experiment [4], in experiment [5] and in experiment [6] was > 100 µM (inactive) each time. The GI50 in experiment [7], in [8], in [9], in experiment [10], in experiment [11] and in experiment [12] was > 100 µM (inactive) in each case. The GI50 in experiment [13], in experiment [14], in experiment [15], in [16], in experiment [17] and in experiment [18] was > 100 µM (inactive) throughout. The GI50 was 23.4 µM (inactive) in [19] and > 100 µM (inactive) in [20].
In the case of `O=C1Nc2ccccc2/C1=N/N1C(=O)/C(=C/c2ccccc2S)N=C1c1ccccc1`, the GI50 is 91.6 µM (inactive) in experiment [1]; 76 µM (inactive) in experiment [2]; > 100 µM (inactive) in experiment [3]; > 100 µM (inactive) in experiment [4]; 97.1 µM (inactive) in experiment [5]; 66.4 µM (inactive) in experiment [6]. The GI50 in experiment [7] was 44.9 µM (inactive); in experiment [8], 42.3 µM (inactive); in experiment [9], 19.5 µM (inactive); in experiment [10], 40.5 µM (inactive); in experiment [11], 33.4 µM (inactive); in experiment [12] it was 36.2 µM (inactive). Besides, the GI50 in experiment [13] was 47.8 µM (inactive); in [14], > 100 µM (inactive); in experiment [15], > 100 µM (inactive); in [16], 42.4 µM (inactive); in experiment [17] it was 81.8 µM (inactive); in experiment [18], > 100 µM (inactive). In addition, the GI50 was 25.5 µM (inactive) in experiment [19] and 61.4 µM (inactive) in experiment [20].
Regarding `CN1CCN(Cn2nc(COc3ccccc3Cl)n(/N=C/c3ccc(-c4ccc(Cl)cc4Cl)o3)c2=S)CC1`, the GI50 in experiment [1] is 22.7 µM (inactive); in experiment [3], 21.4 µM (inactive); in experiment [4], 19.5 µM (inactive); in experiment [5], 28 µM (inactive); in experiment [6], 19.7 µM (inactive); in experiment [7], 33.4 µM (inactive). For the same compound, the GI50 in [8] is 24.8 µM (inactive); in [9], 24.5 µM (inactive); in [10] it was 26.2 µM (inactive); in experiment [11] it was 21.7 µM (inactive); in experiment [12] it was 27 µM (inactive); in experiment [13], 23.8 µM (inactive). Further, the GI50 is 54.5 µM (inactive) in experiment [14]; 60.5 µM (inactive) in experiment [15]; 22.4 µM (inactive) in [16]; 24.8 µM (inactive) in experiment [17]; 35.5 µM (inactive) in experiment [18]; 19.5 µM (inactive) in [19]. The GI50 in experiment [20] was 33.2 µM (inactive).
As to `CC1(CCc2ccccc2)CC1(Br)Br` (configuration not stated), the GI50 in experiment [1] was 56.5 µM (inactive); in experiment [2], 20.8 µM (inactive); in [3], 51.9 µM (inactive); in experiment [4], 30.4 µM (inactive); in experiment [5], 92 µM (inactive); in experiment [6], 35.7 µM (inactive). The GI50 in experiment [7] is 20.5 µM (inactive); in experiment [8], 25.5 µM (inactive); in experiment [9], 23.4 µM (inactive); in experiment [10] it was 23 µM (inactive); in experiment [11], 18 µM (inactive); in experiment [12] it was 23.6 µM (inactive). The GI50 in experiment [13] was 40.8 µM (inactive); in experiment [14], 41.4 µM (inactive); in [15] it was > 100 µM (inactive); in [16] it was 17.8 µM (inactive); in [17], 13.1 µM (inactive); in experiment [18] it was > 100 µM (inactive). The GI50 was 27.2 µM (inactive) in experiment [19] and 39.4 µM (inactive) in [20].
Take `COc1ccc2c(c1)CC[C@@H]1[C@@H]2CC[C@]2(C)C(=O)/C(=C/c3ccncc3)C[C@@H]12`: the GI50 is 46.5 µM (inactive) in experiment [1]; 25.3 µM (inactive) in [2]; 19.9 µM (inactive) in experiment [3]; 33.1 µM (inactive) in experiment [4]; 56.1 µM (inactive) in experiment [5]; 27.2 µM (inactive) in [6]. In addition, the GI50 is 37.8 µM (inactive) in [7]; 30.4 µM (inactive) in experiment [8]; > 100 µM (inactive) in experiment [9]; 30.4 µM (inactive) in experiment [10]; 17.8 µM (inactive) in [11]; 51.6 µM (inactive) in [12]. The GI50 in experiment [13] was 29.3 µM (inactive); in [14], 36.1 µM (inactive); in experiment [15] it was 33.6 µM (inactive); in experiment [16], 22.5 µM (inactive); in experiment [17], 20.2 µM (inactive); in [18], 32.9 µM (inactive). The values for the GI50 in [19] and in experiment [20] were 33.3 µM (inactive) and 37.2 µM (inactive), respectively.
In the case of `Brc1ccc2[nH]cc(-c3csc(-c4ccccn4)n3)c2c1`, the GI50 in [1] is 17.1 µM (inactive); in experiment [2], 13.4 µM (inactive); in experiment [3] it was 15.8 µM (inactive); in [4], 5.12 µM (inactive); in experiment [5], 23 µM (inactive); in [6], 9.16 µM (inactive). Besides, the GI50 in experiment [7] is 8.69 µM (inactive); in [8], 41.8 µM (inactive); in experiment [9], 5.28 µM (inactive); in experiment [10], 8.95 µM (inactive); in experiment [11], 9.31 µM (inactive); in experiment [12], 26.9 µM (inactive). Besides, the GI50 in [13] is 14.2 µM (inactive); in experiment [14], 30.6 µM (inactive); in experiment [15], 53.1 µM (inactive); in [16], 44.8 µM (inactive); in experiment [17], 16.4 µM (inactive); in [18] it was 33 µM (inactive). Besides, the GI50 is 10.7 µM (inactive) in experiment [19] and 59.7 µM (inactive) in experiment [20].
